The test system of one series is female mice. In words: Skin sensitization test according to the LLNA (Local Lymph Node Assay), BrdU intake. The settings on record: test substance 50.0 w/v % in acetone/olive oil 4/1, 25 μL/auricle once a day for three days; SI less than 3 = negative in skin sensitizing property. The class given is in vivo. As for the experimental part: Stimulus index (SI) was measured by a skin sensitization test according to the LLNA (Local Lymph Node Assay) as follows.
As a positive control, α-hexyl cinnamaldehyde (HCA, product of Wako Pure Chemical Industries, Ltd.) was used.
As a medium, a mixture liquid of acetone (product of Wako Pure Chemical Industries, Ltd.) and olive oil (product of Fudimi Pharmaceutical Co., Ltd.) in a volume ratio of 4/1 was used.
Before treated with the test materials, the positive control, or the medium control, female mice were acclimated for 8 days including 6-day quarantine. No abnormalities were found in all the mice (used animals) during the quarantine/acclimation period.
Based on the body weights measured 2 days before the initiation of sensitization, they were categorized into 2 groups (4 mice/group) by the body weight stratified random sampling method so that the body weight of each individual was within ±20% of the average body weight of all the individuals. Each of the used animals was 8 weeks old to 9 weeks old at the time of the initiation of sensitization. […]
About 24 hours after the administration of BrdU, the used animals were allowed to undergo euthanasia, and their auricular lymph nodes were sampled. […] Also, the average of the weights of the auricular lymph nodes and the standard error thereof were calculated for each group. […]

For series [1] the following is noted: evaluated by Maximization test method according to the document; cited from earlier work.
The conditions of series [2]: evaluated by a test method based on OECD Test Guideline 406 in MSDS; cited from earlier work.
For series [3] the following is noted: risk phrase code R43 or H317; cited from earlier work.

Where two headings read alike, the source gives them in different places.

In the case of “Tricyclodecane dimethanol dimethacrylate”, in the series on female mice, the “SI measured by the LLNA test (stimulus index)” value is 1.3. As to `C=C(C)C(=O)OCCCCCC` [n-Hexyl methacrylate], the skin sensitizing property result in series [1] is recorded as “Negative”.

For the compound `O=C(c1ccccc1)C1(O)CCCCC1` [1-Hydroxy-cyclohexyl phenyl ketone], the skin sensitizing property entry in series [2] is “None”. Consider `C=C(C)C(=O)OCC(CO)OC(=O)C(=C)C` (stereo not drawn) [Glycerol dimethacrylate], for which the “SI measured by the LLNA test (stimulus index)” value with female mice came to 1.2. As for `C=C(C)C(=O)OCCCCC` [n-Pentyl methacrylate], the skin sensitizing property result in series [1] was “Negative”. In the case of `C=CC(=O)OC(C)(C)C` [t-Butyl acrylate], in series [3], the skin sensitizing property entry is recorded as “Positive”. As to “Caprolactone-modified dipentaerythritol hexaacrylate”, in series [2], the skin sensitizing property result was “Negative”.

As for `CCC(Cc1ccc(C)cc1)(C(=O)c1ccc(N2CCOCC2)cc1)N(C)C` (stereo not drawn) [2-Dimethylamino-2-(4-methylbenzyl)-1-(4-morpholine-4-yl-phenyl)butane-1-one], the skin sensitizing property result in series [2] is listed as “None”.

Take `C=C(C)C(=O)OC(C)(C)C` [t-Butyl methacrylate]: in series [1], the skin sensitizing property entry is on record as “Negative”.

(Values after patent US10538099B2, “Inkjet recording apparatus, printer, and method for manufacturing cured product” (Ricoh Company, Ltd., priority 2016, dated 2020).)
